Literature values in US6387861B1, “Detergent compositions” (Unilever Home & Personal Care USA division of Conopco, Inc., priority 1999, dated 2002).
Read-outs that look alike come from different tables or passages of the source.

Conditions: 20° C.

Compound	Water Solubility (grams of solid to form a saturated solution in 100 grams of water, highly water-soluble materials) [g/100 g]	Water Solubility (other common materials) [g/100 g]
NC(N)=O [Urea]	>100	–
O=P(O)(O)OP(=O)(O)OP(=O)(O)O [Sodium tripolyphosphate anhydrous]	–	15
O=BO[O-].[Na+] [Sodium perborate anhydrous]	–	3.7
